Data as given in patent US5023239A, “Sialosyl cholesterol, process for producing the same, and neuropathy remedy comprising the same” (MECT Corporation, priority 1986, dated 1991).

What was measured:
[1] = system: Neuroblastoma Cell, Neuro 2a Strain; experiment: Effect on proliferation / neurite propagation of neuroblastoma cell, Neuro 2a strain; assay type: cell-based, mouse; conditions: for activity (in words): 24 hours cultivation; for minimal effective concentration: 48 hours after addition
Procedure: Experiments for confirming the activity of the present compound for promoting propagation of neurites will be explained below.
Effect On Proliferation of Neuroblastoma Cell, Neuro 2a Strain
Neuro 2a was floated on culture medium consisting of 90% of Dulbecco's Modified Eagle's Midium, and 10% of fetal calf serum (FCS), and containing 100 units/ml of penicillin G and 100 micro g/ml of streptomycin sulfate, and then cultivated at 37° C. in a carbon dioxide incubator containing air into which 5% of carbon dioxide was incorporated. The vessel as used was a polystyrene tray having a diameter of 60 mm. 1 to 2×10^4 of the neuroblastoma cells were implanted in each tray and cultivated for 48 hours. The FCS-containing culture was removed from the resultant cell culture. […] When 24 and 48 hours had passed after the addition of these medicines, the number of the living cells increased in the culture, the number of the neurites increased, and the length of the neurites were measured. The experiment was conducted on three trays with respect to each concentration. The resultant data were expressed by average value+standard error (S.E).

ddy male mice = experiment: Acute toxicity test, intravenous injection; assay type: in vivo, mouse; conditions: ddy male mice of 45 weeks age
Procedure: Acute toxicity test was conducted by intravenously injecting the compounds into ddy male mice of 45 weeks age.

Molecule: CC(=O)NC1C(O)CC(OC2CCC3(C)C(=CCC4C3CCC3(C)C(C(C)CCCC(C)C)CCC43)C2)(C(=O)O)OC1C(O)C(O)CO [Compound (5), sodium 5-acetoamide-2-O-(5-cholesten-3-beta-yl)-3,5-dideoxy-beta-D-glycero-D-galacto-2-nonulopyranosonate]
- activity (in words) ([1]; 10 ng/ml): indicated activity
- Length of neurite ± S.E. ([1]; 24 hrs, 10 ng/ml): 89.4 ± 4.23 μm/cell
- Number of neurite propagated cells ([1]; 24 hrs, 10 ng/ml): 124
- Number of neurites ± S.E. ([1]; 24 hrs, 10 ng/ml): 1.3 ± 0.05 number/cell
- Rate of neurite propagation (%) ([1]; 24 hrs, 10 ng/ml): 34.3%
- Total number of cells ([1]; 24 hrs, 10 ng/ml): 361
- Length of neurite ± S.E. ([1]; 24 hrs, 100 ng/ml): 116.4 ± 5.59 μm/cell
- Number of neurite propagated cells ([1]; 24 hrs, 100 ng/ml): 156
- Number of neurites ± S.E. ([1]; 24 hrs, 100 ng/ml): 1.2 ± 0.03 number/cell
- Rate of neurite propagation (%) ([1]; 24 hrs, 100 ng/ml): 40.6%
- Total number of cells ([1]; 24 hrs, 100 ng/ml): 384
- Length of neurite ± S.E. ([1]; 24 hrs, 1 μg/ml): 130.8 ± 5.16 μm/cell
- Number of neurite propagated cells ([1]; 24 hrs, 1 μg/ml): 213
- Number of neurites ± S.E. ([1]; 24 hrs, 1 μg/ml): 1.2 ± 0.04 number/cell
- Rate of neurite propagation (%) ([1]; 24 hrs, 1 μg/ml): 53.8%
- Total number of cells ([1]; 24 hrs, 1 μg/ml): 396
- minimal effective concentration [1]: 100 ng/mL
- Length of neurite ± S.E. ([1]; 48 hrs, 10 ng/ml): 110.6 ± 4.93 μm/cell
- Number of neurite propagated cells ([1]; 48 hrs, 10 ng/ml): 226
- Number of neurites ± S.E. ([1]; 48 hrs, 10 ng/ml): 1.2 ± 0.04 number/cell
- Rate of neurite propagation (%) ([1]; 48 hrs, 10 ng/ml): 47.9%
- Total number of cells ([1]; 48 hrs, 10 ng/ml): 472
- Length of neurite ± S.E. ([1]; 48 hrs, 100 ng/ml): 135.1 ± 6.23 μm/cell
- Number of neurite propagated cells ([1]; 48 hrs, 100 ng/ml): 212
- Number of neurites ± S.E. ([1]; 48 hrs, 100 ng/ml): 1.3 ± 0.04 number/cell
- Rate of neurite propagation (%) ([1]; 48 hrs, 100 ng/ml): 50.2%
- Total number of cells ([1]; 48 hrs, 100 ng/ml): 422
- Length of neurite ± S.E. ([1]; 48 hrs, 1 μg/ml): 138.9 ± 5.39 μm/cell
- Number of neurite propagated cells ([1]; 48 hrs, 1 μg/ml): 252
- Number of neurites ± S.E. ([1]; 48 hrs, 1 μg/ml): 1.2 ± 0.03 number/cell
- Rate of neurite propagation (%) ([1]; 48 hrs, 1 μg/ml): 55.5%
- Total number of cells ([1]; 48 hrs, 1 μg/ml): 454
- growth / propagation of neurites (in words) ([1]; Neuro 2a culture): strong activity for the propagation of the neurites
- activity relative to GMl (times as high) ([1]; vs GMl, from minimal effective concentrations at 48 hours, molecular weights considered): 42 times
- activity relative to GQlb (times as high) ([1]; vs GQlb, from minimal effective concentrations at 48 hours, molecular weights considered): 27 times
- LD50 (ddy male mice): 291 mg/kg

Molecule: <NAcNeu (alpha 2-8) NAcNeu (alpha 2-3)>Gal (beta 1-3) GalNAc (beta 1-4)- NAcNeu-(alpha 2-8) <NAcNeu- (alpha 2-3)>-Gal (beta 1-4) Glc (beta 1-1)-Ceramide [GQlb]
- activity (in words) [1]: do not provide any activity
- Length of neurite ± S.E. ([1]; 24 hrs, 10 ng/ml): 88.5 ± 5.00 μm/cell
- Number of neurite propagated cells ([1]; 24 hrs, 10 ng/ml): 174
- Number of neurites ± S.E. ([1]; 24 hrs, 10 ng/ml): 1.3 ± 0.05 number/cell
- Rate of neurite propagation (%) ([1]; 24 hrs, 10 ng/ml): 51.8%
- Total number of cells ([1]; 24 hrs, 10 ng/ml): 336
- Length of neurite ± S.E. ([1]; 24 hrs, 100 ng/ml): 86.0 ± 4.72 μm/cell
- Number of neurite propagated cells ([1]; 24 hrs, 100 ng/ml): 159
- Number of neurites ± S.E. ([1]; 24 hrs, 100 ng/ml): 1.3 ± 0.04 number/cell
- Rate of neurite propagation (%) ([1]; 24 hrs, 100 ng/ml): 48.0%
- Total number of cells ([1]; 24 hrs, 100 ng/ml): 331
- Length of neurite ± S.E. ([1]; 24 hrs, 1 μg/ml): 97.6 ± 4.95 μm/cell
- Number of neurite propagated cells ([1]; 24 hrs, 1 μg/ml): 157
- Number of neurites ± S.E. ([1]; 24 hrs, 1 μg/ml): 1.4 ± 0.05 number/cell
- Rate of neurite propagation (%) ([1]; 24 hrs, 1 μg/ml): 51.0%
- Total number of cells ([1]; 24 hrs, 1 μg/ml): 308
- Length of neurite ± S.E. ([1]; 24 hrs, 10 μg/ml): 114.9 ± 5.98 μm/cell
- Number of neurite propagated cells ([1]; 24 hrs, 10 μg/ml): 205
- Number of neurites ± S.E. ([1]; 24 hrs, 10 μg/ml): 1.4 ± 0.06 number/cell
- Rate of neurite propagation (%) ([1]; 24 hrs, 10 μg/ml): 63.9%
- Total number of cells ([1]; 24 hrs, 10 μg/ml): 321
- minimal effective concentration [1]: 10 micro g/ml
- Length of neurite ± S.E. ([1]; 48 hrs, 10 ng/ml): 100.4 ± 5.76 μm/cell
- Number of neurite propagated cells ([1]; 48 hrs, 10 ng/ml): 158
- Number of neurites ± S.E. ([1]; 48 hrs, 10 ng/ml): 1.5 ± 0.06 number/cell
- Rate of neurite propagation (%) ([1]; 48 hrs, 10 ng/ml): 42.6%
- Total number of cells ([1]; 48 hrs, 10 ng/ml): 371
- Length of neurite ± S.E. ([1]; 48 hrs, 100 ng/ml): 90.4 ± 6.06 μm/cell
- Number of neurite propagated cells ([1]; 48 hrs, 100 ng/ml): 153
- Number of neurites ± S.E. ([1]; 48 hrs, 100 ng/ml): 1.2 ± 0.04 number/cell
- Rate of neurite propagation (%) ([1]; 48 hrs, 100 ng/ml): 44.1%
- Total number of cells ([1]; 48 hrs, 100 ng/ml): 347
- Length of neurite ± S.E. ([1]; 48 hrs, 1 μg/ml): 106.5 ± 6.40 μm/cell
- Number of neurite propagated cells ([1]; 48 hrs, 1 μg/ml): 182
- Number of neurites ± S.E. ([1]; 48 hrs, 1 μg/ml): 1.3 ± 0.04 number/cell
- Rate of neurite propagation (%) ([1]; 48 hrs, 1 μg/ml): 47.4%
- Total number of cells ([1]; 48 hrs, 1 μg/ml): 384
- Length of neurite ± S.E. ([1]; 48 hrs, 10 μg/ml): 122.5 ± 6.99 μm/cell
- Number of neurite propagated cells ([1]; 48 hrs, 10 μg/ml): 214
- Number of neurites ± S.E. ([1]; 48 hrs, 10 μg/ml): 1.3 ± 0.04 number/cell
- Rate of neurite propagation (%) ([1]; 48 hrs, 10 μg/ml): 61.8%
- Total number of cells ([1]; 48 hrs, 10 μg/ml): 346
